Laboratory results taken from US8501786B2, “Hydroxymethyl pyrrolidines as beta 3 adrenergic receptor agonists” (Merck Sharp & Dohme Corp., priority 2009, dated 2013).
Like-named read-outs stand apart in the source and are kept apart here.

Target: T1, human β3 adrenergic receptor (Homo sapiens, UniProt P13945)
T1 construct: stably transfected with the cloned β-adrenergic receptor (β1, β2 or β3); expressed in transfected cells; host or cells: Chinese hamster ovary (CHO) cells, stably transfected
Assay: Functional assay: cAMP production (LANCE TR-FRET) in CHO cells stably transfected with cloned β3 adrenergic receptor
Assay type: cell-based
Protocol: Functional Assay: cAMP production in response to ligand is measured according to Barton, et al. (1991, Agonist-induced desensitization of D2 dopamine receptors in human Y-79 retinoblastoma cells. Mol. Pharmacal. v3229:650-658) modified as follows, cAMP production is measured using a homogenous time-resolved fluorescence resonance energy transfer immunoassay (LANCE™, Perkin Elmer) according to the manufacture's instructions. Chinese hamster ovary (CHO) cells, stably transfected with the cloned β-adrenergic receptor (β1, β2 or β3) are harvested after 3 days of subculturing. Harvesting of cells is done with Enzyme-free Dissociation Media (Specialty Media). Cells are then counted and resuspended in assay buffer (Hank's Balanced salt solution supplemented with 5 mM HEPES, […]) containing a phosphodiesterase inhibitor (IBMX, 0.6 mM). The reaction is initiated by mixing 6,000 cells in 6 μL with 6 μL Alexa Fluor labeled cAMP antibody (LANCE™ kit) which is then added to an assay well containing 12 μL of compound (diluted in assay buffer to 2× final concentration). The reaction proceeds for 30 min at room temperature and is terminated by the addition of 24 ul detection buffer (LANCE™ kit). The assay plate is then incubated for 1 h at room temperature and time-resolved fluorescence measured on a Perkin Elmer Envision reader or equivalent. The unknown cAMP level is determined by comparing fluorescence levels to a cAMP standard curve.
The non-selective, full agonist β-adrenergic ligand isoproterenol is used at all three receptors to determine maximal stimulation. The human β3 adrenergic receptor (AR) selective ligand (S)-N-[4-[2-[[2-hydroxy-3-(4-hydroxyphenoxy)propyl]amino]ethyl]-phenyl]-4-iodobenzenesulfonamide is used as a control in all assays. Isoproterenol is titrated at a final concentration in the assay of 10^-10 M to 10-5 and the selective ligand (S)-N-[4-[2-[[2-hydroxy-3-(4-hydroxyphenoxy)propyl]amino]ethyl]phenyl]-4-iodobenzenesulfonamide is titrated at the β3 receptor at concentration of 10^-10 M to 10^-5 M. Unknown ligands are titrated at all 3 β-adrenergic receptor subtypes at a final concentration in the assay of 10^-10 M to 10^-5 M to determine the EC50. The EC50 is defined as the concentration of compound that gives 50% activation of its own maximum. Data are analyzed using Microsoft Excel and Graphpad Prism or an internally developed data analysis software package.

[1] = Table 3, cAMP production, CHO cells expressing human β3 AR, read-out: Human β3 functional
[2] = Table 2, cAMP production, CHO cells expressing human β3 AR, read-out: Human β3 functional
[3] = Table 6, human β3 functional activity given as ranges, read-out: Human β3 functional
[4] = Table 4, cAMP production, CHO cells expressing human β3 AR, read-out: Human β3 functional

T1 sequence (P13945 whole entry): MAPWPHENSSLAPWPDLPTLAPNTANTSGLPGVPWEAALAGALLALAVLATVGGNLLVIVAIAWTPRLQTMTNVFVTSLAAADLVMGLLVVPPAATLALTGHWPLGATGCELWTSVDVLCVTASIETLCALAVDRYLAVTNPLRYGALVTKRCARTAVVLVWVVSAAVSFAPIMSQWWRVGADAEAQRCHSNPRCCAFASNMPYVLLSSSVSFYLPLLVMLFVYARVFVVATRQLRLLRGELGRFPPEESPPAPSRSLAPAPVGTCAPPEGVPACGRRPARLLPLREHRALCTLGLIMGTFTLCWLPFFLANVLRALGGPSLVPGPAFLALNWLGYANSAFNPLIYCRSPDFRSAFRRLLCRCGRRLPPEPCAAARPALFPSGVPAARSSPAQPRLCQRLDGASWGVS

Compound | EC50 [1] [nM] | EC50 [2] [nM] | also measured
Cc1nn(C)c(O)c1CC(=O)Nc1ccc(CC2CC[C@H]([C@H](O)c3cccnc3)N2)cc1 (stereo partly shown) [Example 88] |  | 101 to 1000 | 
O=C(Cc1nnc(-c2cscn2)[nH]1)Nc1ccc(CC2CC[C@H]([C@H](O)c3cccnc3)N2)cc1 (stereo partly shown) [Example 27] |  | 1 to 10 | 
Nc1ncn(CC(=O)Nc2ccc(CC3CC[C@H]([C@H](O)c4cccnc4)N3)cc2)n1 (stereo partly shown) [Example 20] |  | 1 to 10 | 
O=C(Cc1ccccc1F)Nc1ccc(CC2CC[C@H]([C@H](O)c3cccnc3)N2)cc1 (stereo partly shown) [Example 77] |  | 11 to 100 | 
Cc1nc2c(s1)CCCC2C(=O)Nc1ccc(CC2CC[C@H]([C@H](O)c3cccnc3)N2)cc1 (single isomer, unassigned) [Example 133] | 11 to 100 |  | 
O=C(Nc1ccc(CC2CC[C@H]([C@H](O)c3cccnc3)N2)cc1)C1CCCc2ccnn21 (single isomer, unassigned) [Example 139] | 101 to 1000 |  | 
O=C(Cn1cncn1)Nc1ccc(CC2CC[C@H]([C@H](O)c3cccnc3)N2)cc1 (stereo partly shown) [Example 38] |  | 11 to 100 | 
CCc1nc2c(s1)CCC2C(=O)Nc1ccc(CC2CC[C@H]([C@H](O)c3cccnc3)N2)cc1 (single isomer, unassigned) [Example 120] | 11 to 100 |  | 
CC(C(=O)Nc1ccc(CC2CC[C@H]([C@H](O)c3cccnc3)N2)cc1)c1cnccn1 (single isomer, unassigned) [Example 144] | 1 to 10 |  | 
O=C(Nc1ccc(CC2CC[C@H]([C@H](O)c3cccnc3)N2)cc1)c1c[nH]c2cccnc12 (stereo partly shown) [Example 54] |  | 101 to 1000 | 
O=C(Nc1ccc(CC2CC[C@H]([C@H](O)c3cccnc3)N2)cc1)C1CCc2sc(F)nc21 (single isomer, unassigned) [Example 156] | 1 to 10 |  | 
CC(NC(=O)c1ccc(F)cc1)C(=O)Nc1ccc(C[C@@H]2CC[C@H]([C@H](O)c3cccnc3)N2)cc1 (stereo partly shown) [Example 259] |  |  | EC50 [3]: 1 to 10 nM
O=S(=O)(Nc1ccc(CC2CC[C@H]([C@H](O)c3cccnc3)N2)cc1)c1ccc(-n2cccn2)cc1 (stereo partly shown) [Example 227] |  |  | EC50 [4]: 11 to 100 nM
O=C(O)c1nc2c(s1)CCC2C(=O)Nc1ccc(CC2CC[C@H]([C@H](O)c3cccnc3)N2)cc1 (single isomer, unassigned) [Example 138] | 11 to 100 |  | 
O=S(=O)(Nc1ccc(CC2CC[C@H]([C@H](O)c3cccnc3)N2)cc1)c1cccc2cccnc12 (stereo partly shown) [Example 229] |  |  | EC50 [4]: 101 to 1000 nM
Cc1[nH]nc2c1CCC2C(=O)Nc1ccc(CC2CC[C@H]([C@H](O)c3cccnc3)N2)cc1 (single isomer, unassigned) [Example 154] | 1 to 10 |  | 
N#Cc1cccc(S(=O)(=O)Nc2ccc(CC3CC[C@H]([C@H](O)c4cccnc4)N3)cc2)c1 (stereo partly shown) [Example 236] |  |  | EC50 [4]: 101 to 1000 nM
O=C(Cn1c(=O)[nH]c2ccccc2c1=O)Nc1ccc(CC2CC[C@H]([C@H](O)c3cccnc3)N2)cc1 (stereo partly shown) [Example 65] |  | 1 to 10 | 
O=C(Cc1cncnc1O)Nc1ccc(CC2CC[C@H]([C@H](O)c3cccnc3)N2)cc1 (stereo partly shown) [Example 47] |  | 11 to 100 | 

Compound | EC50 [1] [nM] | EC50 [2] [nM] | also measured
COC(=O)c1cn(C(C)C(=O)Nc2ccc(CC3CC[C@H]([C@H](O)c4cccnc4)N3)cc2)nn1 (single isomer, unassigned) [Example 151] | 11 to 100 |  | 
Cc1cn(CC(=O)Nc2ccc(CC3CC[C@H]([C@H](O)c4cccnc4)N3)cc2)c(=O)[nH]c1=O (stereo partly shown) [Example 62] |  | 11 to 100 | 
Cc1cccc2c(=O)n(CC(=O)Nc3ccc(CC4CC[C@H]([C@H](O)c5cccnc5)N4)cc3)cnc12 (stereo partly shown) [Example 59] |  | 1 to 10 | 
O=C(Cc1nnc(-c2ccc(Cl)cc2)[nH]1)Nc1ccc(CC2CC[C@H]([C@H](O)c3cccnc3)N2)cc1 (stereo partly shown) [Example 24] |  | 11 to 100 | 
O=C(Nc1ccc(CC2CC[C@H]([C@H](O)c3cccnc3)N2)cc1)C1CCc2cccnc21 (single isomer, unassigned) [Example 128] | 1 to 10 |  | 
CC(C(=O)Nc1ccc(CC2CC[C@H]([C@H](O)c3cccnc3)N2)cc1)n1ncccc1=O (single isomer, unassigned) [Example 162] | 1 to 10 |  | 
O=S(=O)(Nc1ccc(CC2CC[C@H]([C@H](O)c3cccnc3)N2)cc1)c1cccc2cnccc12 (stereo partly shown) [Example 230] |  |  | EC50 [4]: 101 to 1000 nM
CC(NC(=O)c1c(F)cccc1F)C(=O)Nc1ccc(C[C@@H]2CC[C@H]([C@H](O)c3cccnc3)N2)cc1 (stereo partly shown) [Example 250] |  |  | EC50 [3]: < 1 nM
O=C(Nc1ccc(CC2CCC(C(O)c3cccnc3)N2)cc1Br)C1CCc2sc(Br)nc21 (single isomer, unassigned) [Example 240, (4S or 4R)-2-bromo-N-[2-bromo-4-({(2S,5R)-5-[(R)-hydroxy(pyridin-3-yl)methyl]pyrrolidin-2-yl}methyl)phenyl]-5,6-dihydro-4H-cyclopenta[d][1,3]thiazole-4-carboxamide] |  |  | EC50 (cAMP production, CHO cells expressing human β3 AR, read-out: human Beta-3 agonist functional activity): < 1000 nM
CC(C(=O)Nc1ccc(CC2CC[C@H]([C@H](O)c3cccnc3)N2)cc1)c1csc(N)n1 (single isomer, unassigned) [Example 106] | 1 to 10 |  | 
O=C(Nc1ccc(CC2CC[C@H]([C@H](O)c3cccnc3)N2)cc1)C1CCc2sc(F)nc21 (single isomer, unassigned) [Example 157] | 1 to 10 |  | 
O=C(Cc1nc2c(s1)CCC2C(=O)Nc1ccc(CC2CC[C@H]([C@H](O)c3cccnc3)N2)cc1)NCc1ccccc1 (single isomer, unassigned) [Example 136] | 1 to 10 |  | 
O=C(Cn1c(=O)cnc2ccccc21)Nc1ccc(CC2CC[C@H]([C@H](O)c3cccnc3)N2)cc1 (stereo partly shown) [Example 58] |  | 1 to 10 | 
NC(=O)c1ccn(CC(=O)Nc2ccc(CC3CC[C@H]([C@H](O)c4cccnc4)N3)cc2)n1 (stereo partly shown) [Example 89] |  | 11 to 100 | 
Cn1ncc2ncn(CC(=O)Nc3ccc(CC4CC[C@H]([C@H](O)c5cccnc5)N4)cc3)c(=O)c21 (stereo partly shown) [Example 76] |  | 1 to 10 | 
O=C(Cn1cnccc1=O)Nc1ccc(CC2CC[C@H]([C@H](O)c3cccnc3)N2)cc1 (stereo partly shown) [Example 53] |  | 1 to 10 | 
CC(NC(=O)c1cccc(F)c1F)C(=O)Nc1ccc(C[C@@H]2CC[C@H]([C@H](O)c3cccnc3)N2)cc1 (stereo partly shown) [Example 255] |  |  | EC50 [3]: < 1 nM
O=C(Cc1c[nH]c2ccccc12)Nc1ccc(CC2CC[C@H]([C@H](O)c3cccnc3)N2)cc1 (stereo partly shown) [Example 19] |  | 1 to 10 | 

Further lines, with some results ahead:

EC50 [1] [nM] | EC50 [2] [nM] | Compound | also measured
11 to 100 |  | CC(C(=O)Nc1ccc(CC2CC[C@H]([C@H](O)c3cccnc3)N2)cc1)n1cc(C(=O)O)nn1 (single isomer, unassigned) [Example 199] | 
1 to 10 |  | CC(C(=O)Nc1ccc(CC2CC[C@H]([C@H](O)c3cccnc3)N2)cc1)n1cccnc1=O (single isomer, unassigned) [Example 166] | 
1 to 10 |  | CC(C(=O)Nc1ccc(CC2CC[C@H]([C@H](O)c3cccnc3)N2)cc1)n1ccc(C(N)=O)n1 (single isomer, unassigned) [Example 202] | 
101 to 1000 |  | O=C1CC[C@@H](C(=O)Nc2ccc(CC3CC[C@H]([C@H](O)c4cccnc4)N3)cc2)N1 (single isomer, unassigned) [Example 197] | 
11 to 100 |  | CC(C(=O)Nc1ccc(CC2CC[C@H]([C@H](O)c3cccnc3)N2)cc1)c1cscn1 (single isomer, unassigned) [Example 196] | 
11 to 100 |  | CC(C(=O)Nc1ccc(CC2CC[C@H]([C@H](O)c3cccnc3)N2)cc1)n1cc(C(N)=O)nn1 (single isomer, unassigned) [Example 200] | 
101 to 1000 |  | Cc1cc(C(C)C(=O)Nc2ccc(CC3CC[C@H]([C@H](O)c4cccnc4)N3)cc2)[nH]n1 (single isomer, unassigned) [Example 177] | 
< 1 |  | O=C(Nc1ccc(CC2CC[C@H]([C@H](O)c3cccnc3)N2)cc1)C1CCc2sc(Cl)nc21 (single isomer, unassigned) [Example 186] | 
11 to 100 |  | CC(C(=O)Nc1ccc(CC2CC[C@H]([C@H](O)c3cccnc3)N2)cc1)c1nnn(C)n1 (single isomer, unassigned) [Example 180] | 
11 to 100 |  | Cc1nnc2n1CCC2C(=O)Nc1ccc(CC2CC[C@H]([C@H](O)c3cccnc3)N2)cc1 (single isomer, unassigned) [Example 170] | 
11 to 100 |  | CCC(C(=O)Nc1ccc(CC2CC[C@H]([C@H](O)c3cccnc3)N2)cc1)c1cscn1 (single isomer, unassigned) [Example 205] | 
1 to 10 |  | Cc1cnnn1C(C)C(=O)Nc1ccc(CC2CC[C@H]([C@H](O)c3cccnc3)N2)cc1 (single isomer, unassigned) [Example 213] | 
